Measured values reported in patent US7964613B2 (Asahi Kasei Pharma Corporation, priority 2007, dated 2011).
Counter-ions that a name gives are not always drawn.

How the values were obtained:
[1] = test system: myosin regulatory light chain of mesenteric artery; details: cited from earlier work
intraocular pressure = assay: Rabbit intraocular pressure reduction enhancing action, Test Example 7-2 (combination use with timolol maleate); format: in vivo, Japanese white rabbit; details: Table 6; 19-1 compound 0.01 weight % aqueous solution 50 μL, Timoptol 50 μL; difference relative to control group at 1, 2, 4 hours; 12 rabbits
Experimental: As a test compound, the 19-1 compound was dissolved in physiological saline, and the solution was neutralized by addition of sodium hydroxide (pH 7.0 to 8.0) to prepare a 0.01 weight % aqueous solution (19-1 compound aqueous solution). As a drug for combination use, timolol maleate (trade name: Timoptol, Santen Pharmaceutical) was used as an adrenergic receptor β blocker, as the marketed formulation as it was.
A Japanese white rabbit having a body weight of about 2 kg was placed in a positioner and naturalized for one week before the experiment. An opthalmologic local anesthesant (Benoxil) was administered to both eyes, and then intraocular pressure before instillation was measured by using a tonometer (Classic 30, Solan). […] The intraocular pressure thereafter was measured for each group 1, 2 and 4 hours after the second administration of the test compound, and the difference of the measured values at each measurement time for the each group and the control group was considered an intraocular pressure reduction value of each group. The largest difference of the intraocular pressure values relative to the control group among those of the measured values of the measurement times was considered the maximum intraocular pressure reduction value (max ? IOP) of each drug group.

SMILES | inhibition of phosphorylation of myosin regulatory light chain [1] | Max IOP (maximum intraocular pressure reduction value) (intraocular pressure)
CC1CNCCN1S(=O)(=O)c1cccc2cnccc12 (centres unmarked) [Example H-7, 1-(5-isoquinolinesulfonyl)-2-methylpiperazine] | inhibits the phosphorylation of myosin regulatory light chain of mesenteric artery | –
CC(C)(C)NC[C@H](O)COc1nsnc1N1CCOCC1 [timolol maleate, reference compound] | – | 1.9 mmHg
